Here are results for one molecule from the NIST ThermoML archive (doi:10.1021/je8008039).

Numbers after ± are expanded uncertainties.

The conditions of this series: Crystal; visual observation.

Turning to `COc1ccc2cc([C@H](C)C(=O)O)ccc2c1` [(S)-(+)-naproxen], the Normal melting temperature was 155 ± 1.1 °C.
